Assay: mn = molality of the nth substance listed, in mol/kg
Conditions: 101 kPa, Liquid, Alternating current cell with electrodes

C[N+](C)(C)CCO.O=C([O-])C(F)(F)C(F)(F)C(F)(F)C(F)(F)C(F)(F)F [(2-hydroxyethyl)trimethylammonium perfluorohexanoate] + O
Conditions	electrical conductivity [S/m]
293.15 K, m1 = 0.000375	0.0022
293.15 K, m1 = 0.000696	0.0041
293.15 K, m1 = 0.001138	0.0071
293.15 K, m1 = 0.001477	0.0092
293.15 K, m1 = 0.001847	0.0114
293.15 K, m1 = 0.002373	0.0146
293.15 K, m1 = 0.00271	0.0166
293.15 K, m1 = 0.003146	0.0191
293.15 K, m1 = 0.003565	0.0215
293.15 K, m1 = 0.003898	0.0234
293.15 K, m1 = 0.004204	0.0251
293.15 K, m1 = 0.004601	0.0273
293.15 K, m1 = 0.00507	0.03
293.15 K, m1 = 0.00539	0.0318
293.15 K, m1 = 0.005815	0.034
293.15 K, m1 = 0.006239	0.0364
293.15 K, m1 = 0.00662	0.0384
293.15 K, m1 = 0.007072	0.0408
293.15 K, m1 = 0.007377	0.0425
293.15 K, m1 = 0.007726	0.0443
293.15 K, m1 = 0.008233	0.047
293.15 K, m1 = 0.008702	0.0493
293.15 K, m1 = 0.009174	0.0517
293.15 K, m1 = 0.009518	0.0535
293.15 K, m1 = 0.009916	0.0557
293.15 K, m1 = 0.01043	0.0585
293.15 K, m1 = 0.01075	0.0607
293.15 K, m1 = 0.01135	0.0637
293.15 K, m1 = 0.01181	0.0666
293.15 K, m1 = 0.01223	0.0687
298.15 K, m1 = 0.00055	0.0043
298.15 K, m1 = 0.001005	0.0076
298.15 K, m1 = 0.001703	0.0126
298.15 K, m1 = 0.002219	0.0163
298.15 K, m1 = 0.002829	0.0204
298.15 K, m1 = 0.003309	0.0241
298.15 K, m1 = 0.003767	0.0269
298.15 K, m1 = 0.00423	0.0305
298.15 K, m1 = 0.004871	0.0338
298.15 K, m1 = 0.005471	0.0376
298.15 K, m1 = 0.005971	0.0408
298.15 K, m1 = 0.006435	0.0436
298.15 K, m1 = 0.007097	0.0477
298.15 K, m1 = 0.007791	0.0519
298.15 K, m1 = 0.008432	0.0557
298.15 K, m1 = 0.008992	0.0589
298.15 K, m1 = 0.009929	0.0652
298.15 K, m1 = 0.01068	0.0683
298.15 K, m1 = 0.0118	0.0747
298.15 K, m1 = 0.01243	0.0781
298.15 K, m1 = 0.01316	0.0821
298.15 K, m1 = 0.01446	0.0892
303.15 K, m1 = 0.000466	0.0041
303.15 K, m1 = 0.000808	0.0072
303.15 K, m1 = 0.001191	0.0104
303.15 K, m1 = 0.001576	0.0137
303.15 K, m1 = 0.002245	0.0181
303.15 K, m1 = 0.002642	0.0212
303.15 K, m1 = 0.00302	0.0242
303.15 K, m1 = 0.003455	0.0274
303.15 K, m1 = 0.003946	0.0311
303.15 K, m1 = 0.004412	0.0342
303.15 K, m1 = 0.004852	0.0375
303.15 K, m1 = 0.00528	0.0407
303.15 K, m1 = 0.005774	0.0442
303.15 K, m1 = 0.006137	0.0465
303.15 K, m1 = 0.006412	0.0486
303.15 K, m1 = 0.006786	0.0514
303.15 K, m1 = 0.00737	0.0557
303.15 K, m1 = 0.007781	0.0587
303.15 K, m1 = 0.008049	0.0605

From the NIST ThermoML archive (doi:10.1021/acs.jced.6b00455)
